Laboratory results: the supplement of paper PMC11061612

Assays:
Experiment in all cases: combination Emax (second highest fraction inhibited in the dose matrix, 72 h); higher = more inhibition; extreme values may be limits of the assay
[1] = system: SK-GT-4 (Esophageal Adenocarcinoma)
Outline: (§1)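 After 24 hours at 37°C and 5% CO2 in 1536-well plates, cells in DMEM/F12 or RPMI plus 10% FBS received two-drug dose matrices for 72 hours. Viability came from CellTiter-Glo 2.0 luminescence and was scaled as inhibition, anchored at 0 by vehicle wells and at 1 by blank wells. Combination Emax is taken as the second-highest inhibition in the matrix, and Bliss excess as the observed combination effect less EA + EB − EA·EB, with EA and EB the single-agent effects.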

[2] = system: VMRC-RCZ (Kidney Carcinoma)
Outline: as §1

[3] = system: T-T (Esophageal Squamous Cell Carcinoma)
Outline: as §1

SJSA-1 (Osteosarcoma) = system: SJSA-1 (Osteosarcoma)
Outline: as §1

[4] = system: DMS-114 (Small Cell Lung Carcinoma)
Outline: as §1

NCI-H2731 (Mesothelioma) = system: NCI-H2731 (Mesothelioma)
Outline: as §1

[5] = system: ST486 (Burkitt's Lymphoma)
Outline: as §1

[6] = system: NCI-H929 (Plasma Cell Myeloma)
Outline: as §1

[7] = system: KYSE-270 (Esophageal Squamous Cell Carcinoma)
Outline: as §1

[8] = system: KP-3 (Pancreatic Carcinoma)
Outline: as §1

[9] = system: NCI-H3122 (Lung Adenocarcinoma)
Outline: as §1

[10] = system: NCI-H520 (Squamous Cell Lung Carcinoma)
Outline: as §1

[11] = system: COR-L279 (Small Cell Lung Carcinoma)
Outline: as §1

[12] = system: NCCIT (Other Solid Carcinomas)
Outline: as §1

[13] = system: MOG-G-CCM (Low Grade Glioma)
Outline: as §1

M059J (Glioblastoma) = system: M059J (Glioblastoma)
Outline: as §1

[14] = system: MN-60 (B-Lymphoblastic Leukemia)
Outline: as §1

[15] = system: OCI-AML3 (Acute Myeloid Leukemia)
Outline: as §1

[16] = system: CW-2 (Colorectal Carcinoma)
Outline: as §1

[17] = system: NCI-H526 (Small Cell Lung Carcinoma)
Outline: as §1

Row | Structure (SMILES) | combination Emax [1] | combination Emax [2] | combination Emax [3] | combination Emax (SJSA-1 (Osteosarcoma)) | combination Emax [4] | combination Emax (NCI-H2731 (Mesothelioma)) | combination Emax [5] | combination Emax [6] | combination Emax [7] | combination Emax [8] | combination Emax [9] | combination Emax [10] | combination Emax [11] | combination Emax [12] | combination Emax [13] | combination Emax (M059J (Glioblastoma)) | combination Emax [14] | combination Emax [15] | combination Emax [16] | combination Emax [17]
1 | Cc1c2c(nn1C)CSCc1cc(n(C)n1)CSc1cc(c3ccccc3c1)OCCCc1c(C(=O)O)n(C)c3c-2c(Cl)ccc13 [AZD5991] + CS(=O)(=O)CCNCc1ccc(-c2ccc3ncnc(Nc4ccc(OCc5cccc(F)c5)c(Cl)c4)c3c2)o1 [Lapatinib] (first compound max 1 µM, 7x7, partner max 10 µM) | 0.379 | 0.209 | 0.988 | 0.196 | 0.608 | 0.44 | 0.758 | 1 | 0.959 | 0.303 | 0.392 | 0.435 | 0.903 | 0.635 | 0.358 | 0.456 | 0.158 | 0.985 | 0.531 | 0.469
2 | N#Cc1cnc(Nc2cc(NC[C@H]3CNCCO3)c(C(F)(F)F)cn2)cn1 [SRA737] + O=c1[nH]cc(F)c(=O)[nH]1 [5-Fluorouracil] (first compound max 10 µM, 7x7, partner max 20 µM) | 0.407 | 0.354 | 0.384 | 0.403 | 0 | 0.172 | 0.928 | 0.768 | 0.99 | 0.307 | 0.611 | 0.588 | 0.821 | 0.458 | 0.419 | 0.315 | 0.436 | 0.922 | 0.403 | 0.855
3 | O=C(c1cc(Cc2n[nH]c(=O)c3ccccc23)ccc1F)N1CCN(C(=O)C2CC2)CC1 [Olaparib] + COc1nnc2ccc(N3CCC(c4ccc(OCCN5CCN(C)C(=O)[C@H]5C)cc4)CC3)nn12 [AZD5153] (first compound max 10 µM, 7x7, partner max 1 µM) | 0.426 | 0.248 | 0.48 | 0.539 | 0.514 | 0.362 | 0.897 | 0.911 | 0.493 | 0.125 | 0.596 | 0.591 | 0.953 | 0.66 | 0.51 | 0.718 | 0.733 | 1 | 0.48 | 0.926
4 | C[C@@H](Oc1cc(-c2cnn(C3CCNCC3)c2)cnc1N)c1c(Cl)ccc(F)c1Cl [Crizotinib] + CC1=C(C(=CC=C1)Cl)NC(=O)C2=CN=C(S2)NC3=CC(=NC(=N3)C)N4CCN(CC4)CCO [Dasatinib] (first compound max 10 µM, 7x7, partner max 2 µM) | 0.812 | 0.846 | 0.825 | 0.885 | 0.591 | 0.888 | 0.95 | 0.999 | 0.792 | 0.127 | 0.881 | 0.659 | 0.839 | 0.342 | 0.921 | 0.829 | 0.494 | 0.639 | 0.306 | 0.452
5 | C=CCn1c(=O)c2cnc(Nc3ccc(N4CCN(C)CC4)cc3)nc2n1-c1cccc(C(C)(C)O)n1 [AZD1775] + CCc1c2c(nc3ccc(O)cc13)-c1cc3c(c(=O)n1C2)COC(=O)[C@]3(O)CC [SN-38] (first compound max 1 µM, partner max 0.3 µM) | 0.486 | 0.462 | 0.776 | 0.706 | 0.655 | 0.496 | 0.997 | 0.927 | 0.981 | 0.397 | 0.853 | 0.808 | 1 | 0.841 | 0.703 | 0.891 | 0.818 | 0.922 | 0.625 | 1
6 | C[C@@H](Nc1cc(F)cc(F)c1)c1cc(C(=O)N(C)C)cc2c(=O)cc(N3CCOCC3)oc12 [AZD8186] + C1CN(CCC1(C(=O)N[C@@H](CCO)C2=CC=C(C=C2)Cl)N)C3=NC=NC4=C3C=CN4 [AZD5363] (first compound max 10 µM, 7x7, partner max 10 µM) | 0.457 | 0.386 | 0.301 | 0.426 | 0.472 | 0.305 | 0.151 | 1 | 0.347 | 0.312 | 0.522 | 0.564 | 0.679 | 0.499 | 0.581 | 0.408 | 0.193 | 0.428 | 0.275 | 0.147
